Measurements as given in patent publication US20190002585A1, “CANCER TREATMENT METHODS AND COMPOSITIONS” (The Cleveland Clinic Foundation, priority 2017, published 2019).
Where a SMILES comes first, the peptide text is derived from it. The star is where a group is joined. Cbz = O=C(OCc1ccccc1)*; CH2F = FC*

Assays:
[1] = tested on: WT A549 cells; assay: Cell death assay, IncuCyte real-time imaging, dual dye; type: cell-based
Procedure: (§1) Cell lines and viruses. Human A549 cells (ATCC® CCL-185™) validated by STR analysis were cultured in RPMI 1640 medium (Gibco) supplemented with 10% fetal bovine serum (FBS), 100U/ml penicillin and 100 μg/ml streptomycin. PC3, DU145 and C4-2 cells were grown in RPMI with 10% FBS. HAEC, BEAS 2B and BETA cells were grown in LHC-8 (Biofluids/Biosource, catalog #P141-500) supplemented with 0.1% epinehrin (Biofluids/Biosource, catalog #355-002), 3.3 mM retinoic acid (Biofluids/Biosource, catalog #348-001) and penicillin-streptomycin-fungizone (Invitogen, catalog #15240-062) and were a gift from Drs. Suzy Comhair and Serpil Erzurum (Cleveland Clinic).
(§2) Cells (20,000 per well) were seeded in 24-well plates or 8,000 cells per well in 96-well plates and treated as stated in figure legends. The cells were incubated with 250 nM Sytox-Green dye (Thermo Fisher), a nucleic acid stain that is an indicator of dead cells and which is impermeant to live cells, and 250 nM of cell permeable dye Syto™ 60-Red (ThermoFisher), which allows quantification of the total number of cells present in each field, using an IncuCyte Live-Cell Imaging System and software (Essen Instruments 2015A) for 72 hours. Cell death was measured by counting the green objects per/well (dead cells, green) and then normalizing to the total number of cells per/well (red objects) at each time point using IncuCyte software.

[2] = tested on: RNase L KO A549 cells; assay: as above; type: cell-based, human; parameters: AZA sensitivity: dose or concentration left out as unconfirmed
Procedure: as §1
(§3) The A549 RNase L KO cells were described previously. Additional knockout cells were generated using the CRISPR Cas9 system. The sgRNA sequences were chosen from a published database. The guide RNA sequences were synthesized as DNA oligonucleotides by IDT. Primers were annealed, phosphorylated and ligated into vector LentiCRISPR v2 (Addgene 52961) that was prepared by digestion with BsmBI. The resulting plasmids were transformed into Stbl3 chemically competent cells (Invitrogen) and grown on a bacterial culture plate at 37° C. Colonies were screened by PCR using the U6 primer and gene specific reverse primer to generate approximately 300 bp product. Positive clones were cultured and plasmid DNA was prepared and sequence verified using the U6 primer. The AKAP7 sgRNA sequences are: sgAKAP7-2 FW CACCGTGAGCGACTGGCCAAAGCAA (SEQ ID NO:1) and sgAKAP7-2 REV AAACTTGCTTTGGCCAGTCGCTCA C (SEQ ID NO:2). The PDE12 sgRNA sequences are: sgPDE12_10.FW CACCGGGATGCCTGGCAAGACGGCG (SEQ ID NO:3) and sgPDE12_10.REV AAACCGCCGTCTTGCCAGGCATCCC (SEQ ID NO:4). Cell cloning was done by limited dilution. The CRISPR vector, pLenti-sgRL-6, was used to knockout RNase L in PC3 cells as we described for RNase L KO A549 cells. To obtain the PDE12/AKAP7 DKO cells, a PDE12 knockout A549 cell line was infected with pseudo lentiviruses expression sgRNA for AKAP7 followed by single cell cloning. The PDE12/RNase L DKO cells were obtained by infecting the RNase L KO A549 cells with the pseudo lentivirus expressing sgRNA for AKAP7 followed by single cell cloning. Resulting clones were screened for knock-out of expression using Western Blots with anti-PDE12 antibody (Abcam ab87738), anti-AKAP7 (Proteintech: Cat#12591-1-AP) antibody or monoclonal antibody against human RNase L [13].
as §2

[3] = tested on: MAVS KO A549 cells; assay: Cell death assay, IncuCyte real-time imaging; type: cell-based, human; conditions: different doses of AZA, compared with WT
Procedure: as §2, with “SytoTM” for “Syto™”, “[…])” for “2015A)”

[4] = tested on: MAVS-RNase L DKO A549 cells; assay: Cell death assay, IncuCyte real-time imaging; type: cell-based, human; conditions: concentrations up to 100 uM
Procedure: as §2, with “SytoTM” for “Syto™”, “[…])” for “2015A)”

[5] = tested on: MAVS KO A549 cells; assay: Apoptosis assay (caspase 3/7), IncuCyte; type: cell-based, human; conditions: 50 uM AZA, compared with WT
Procedure: (§4) Cells were seeded in 96-well plates and treated with Aza as above. The cells were incubated with IncuCyte™ Kinetic Caspase-3/7 Apoptosis Assay Reagent (green) according to manufacturer's protocol and with 250 nM of Syto Red dye (ThermoFisher) for 24 hours. The apoptotic index was determined by determining the total count [green Integrated Intensity (GCU×μm^2/Image)] and then normalizing by count confluence (percent) using IncuCyte software.

[6] = tested on: MAVS/RNase L DKO A549 cells; assay: Apoptosis assay (caspase 3/7), IncuCyte; type: cell-based, human; conditions: 50 uM AZA
Procedure: as §4

[7] = tested on: RNase L KO A549 cells; assay: Apoptosis assay (caspase 3/7), IncuCyte; type: cell-based, human; conditions: 50 uM AZA
Procedure: as §4

[8] = tested on: WT A549 cells; assay: Apoptosis assay (caspase 3/7), IncuCyte; type: cell-based, human
Procedure: as §4

[9] = tested on: RNase L KO A549 cells; assay: PARP cleavage, Western blot; type: cell-based, human; conditions: 50 uM AZA for 48 hours
Procedure: (§5) PARP cleavage was monitored in Western blots probed with [anti PAPR1 (rabbit polyclonal) (Santa Cruz Biotechnology)]. β-actin levels were monitored with 3-actin (mouse monoclonal) antibody (Sigma-Aldrich) to evaluated as a control.
(§6) Prior to lysis, cells were washed twice in cold phosphate-buffered saline (PBS). Cell extracts were prepared with lysis buffer supplemented with phosphatase/protease inhibitors followed by incubation on ice for 20 min. Lysates were subjected to centrifugation at 12,000 g for 10 min, and the supernatants collected and protein quantified by Bradford assays (BioRaD). Cell lysates ([…]) were separated on 8% or 10% SDS PAGE gels and proteins were transferred to polyvinylidene difluoride membranes (0.45 μm) (BioRaD) and probed with antibodies according to the different manufacturers' recommendations.

[10] = tested on: WT A549 cells; assay: PARP cleavage, Western blot; type: cell-based, human; conditions: 50 uM AZA for 48 hours
Procedure: as §5, §6

[11] = tested on: bronchial epithelial cells BETA; assay: Cell death assay, IncuCyte live-cell imaging; type: cell-based, human; conditions: FIG. 7
Procedure: as §1, §2

[12] = tested on: bronchial epithelium BEAS 2B cells; assay: Cell death assay, IncuCyte live-cell imaging; type: cell-based, human; conditions: FIG. 7
Procedure: as §1, §2

[13] = tested on: primary alveolar epithelial cells HAEC; assay: Cell death assay, IncuCyte live-cell imaging; type: cell-based, human; conditions: FIG. 7
Procedure: as §1, §2

[14] = tested on: C4-2 prostate cancer cells; assay: Cell death assay, IncuCyte real-time imaging; type: cell-based, human; conditions: FIG. 8
Procedure: as §1, §2

[15] = tested on: DU145 prostate cancer cells; assay: Cell death assay, IncuCyte real-time imaging; type: cell-based, human; conditions: FIG. 8
Procedure: as §1, §2

[16] = tested on: PC3 prostate cancer cells; assay: Cell death assay, IncuCyte real-time imaging; type: cell-based, human; conditions: FIG. 9
Procedure: as §1, §2

[17] = tested on: AKAP7 KO A549 cells; assay: Cell survival, IncuCyte; type: cell-based, human; conditions: 50 uM AZA (FIG. 11)
Procedure: as §3, with “To obtain the PDE12/AKAP7 DKO cells, a PDE12 knockout A549 cell line was infected with pseudo lentiviruses expression sgRNA for AKAP7 followed by single cell cloning. The PDE12/RNase L DKO cells were obtained by infecting the RNase L KO A549 cells with the pseudo lentivirus expressing sgRNA for AKAP7 followed by single cell cloning. Resulting clones were screened for knock-out of expression using Western Blots with anti-PDE12 antibody (Abcam ab87738), anti-AKAP7 (Proteintech: Cat#12591-1-AP) antibody or monoclonal antibody against human RNase L [13].” left out
as §2

[18] = tested on: AKAP7-PDE12 DKO A549 cells; assay: Cell survival, IncuCyte; type: cell-based, human; conditions: 50 uM AZA (FIG. 11)
Procedure: as §3, with “To obtain the PDE12/AKAP7 DKO cells, a PDE12 knockout A549 cell line was infected with pseudo lentiviruses expression sgRNA for AKAP7 followed by single cell cloning. The PDE12/RNase L DKO cells were obtained by infecting the RNase L KO A549 cells with the pseudo lentivirus expressing sgRNA for AKAP7 followed by single cell cloning. Resulting clones were screened for knock-out of expression using Western Blots with anti-PDE12 antibody (Abcam ab87738), anti-AKAP7 (Proteintech: Cat#12591-1-AP) antibody or monoclonal antibody against human RNase L [13].” left out
as §2

[19] = tested on: PDE12 KO A549 cells; assay: Cell survival, IncuCyte; type: cell-based, human; conditions: 50 uM AZA (FIG. 11)
Procedure: as §3, with “To obtain the PDE12/AKAP7 DKO cells, a PDE12 knockout A549 cell line was infected with pseudo lentiviruses expression sgRNA for AKAP7 followed by single cell cloning. The PDE12/RNase L DKO cells were obtained by infecting the RNase L KO A549 cells with the pseudo lentivirus expressing sgRNA for AKAP7 followed by single cell cloning. Resulting clones were screened for knock-out of expression using Western Blots with anti-PDE12 antibody (Abcam ab87738), anti-AKAP7 (Proteintech: Cat#12591-1-AP) antibody or monoclonal antibody against human RNase L [13].” left out
as §2

[20] = tested on: RNASEL KO A549 cells with knock-in of WT RNase L; assay: Cell death assay, IncuCyte, RNase L knock-in; type: cell-based, human; conditions: 50 μM AZA for 72 hr
Procedure: (§7) Both WT and R667A RNase L have a FLAG epitope attached. Cells were lysed after 72 hr and proteins were analyzed by Western blot probed with anti-Flag M2 antibody (Sigma-Aldrich) (upper) and anti-β-actin antibody (Sigma-Aldrich) (lower). […] Dead cells and total cells were determined with an IncuCyte real-time imaging system using a dual-dye method. A minimum of three wells were treated with each experimental condition. The data are average±SD from three independent replicates. […] Three separate wells were treated with each experimental condition and a minimum of 4 image fields (>10,000 cells/well) were analyzed per well.
as §2

[21] = tested on: RNASEL KO A549 cells with knock-in of mutant RNase L (R667A); assay: Cell death assay, IncuCyte, RNase L knock-in; type: cell-based, human; conditions: 50 μM AZA for 72 hr
Procedure: as §7, §2

[22] = tested on: OAS (1, 2, 3) triple KO HME cells; assay: Cell death assay, IncuCyte; type: cell-based, human; conditions: AZA 50 μM, compared with WT HME
Procedure: as §7, §2

[23] = tested on: MAVS-ADAR1 DKO A549 cells; assay: Cell survival, IncuCyte; type: cell-based, human; conditions: 50 mM AZA (FIG. 19), compared with WT cells
Procedure: (§8) In FIG. 19 WT, RNase L-ADAR1 DKO, MAVS-ADAR1 DKO, MAVS-ADAR1-RNase L TKO and p150 ADAR1 isoform KO A549 cells were incubated without AZA (panel A) or with […] AZA (panels B and C). Percent survival after […] AZA treatment was calculated using an IncuCyte system. The data are average=±SD from three independent replicates. Similar data were obtained from two additional independent experiments.
as §2

[24] = tested on: MAVS-ADAR1-RNase L TKO A549 cells; assay: Cell survival, IncuCyte; type: cell-based, human; conditions: 50 μM AZA (FIG. 19)
Procedure: as §8, §2

[25] = tested on: RNase L-ADAR1 DKO A549 cells; assay: Cell survival, IncuCyte; type: cell-based, human; conditions: 50 mM AZA (FIG. 19)
Procedure: as §8, §2

[26] = tested on: ADAR1 p150 KO A549 cells; assay: Cell survival, IncuCyte; type: cell-based, human; parameters: dose or concentration left out as unconfirmed; conditions: AZA (FIG. 19C)
Procedure: as §2

Compound: Nc1ncn([C@H]2C[C@H](O)[C@@H](CO)O2)c(=O)n1 [DAC, 5-aza-2′-deoxycytidine]
- cell survival ([1]; 25 uM DAC, up to 70 hrs): 56%
- cell survival ([1]; 50 uM DAC, up to 70 hrs): 47%
- sensitivity to DAC relative to AZA ([1]; up to 70 hrs): less sensitive
- effect on survival ([2]; DAC, up to 70 hrs): no effect

Compound: Nc1ncn([C@@H]2O[C@H](CO)[C@@H](O)[C@H]2O)c(=O)n1 [AZA, 5-azacytidine]
- cell death ([1]; 50 uM AZA, by 60 hours of treatment): 85%
- cell survival ([1]; AZA 25 uM by itself): 57%
- AZA sensitivity ([1]; FIG. 7, compared with normal lung epithelia): highly sensitive
- cytotoxicity of AZA with ionizing radiation ([1]; IR 10 Gy for 10 min, then AZA 25 μM or 12.5 μM for 50 hr): potentiates the cytotoxicity of AZA
- cell death ([2]; 50 uM AZA): 9%
- cell death ([2]; 100 uM AZA): 17%
- sensitivity to treatment (cell survival) ([2]; AZA 25 uM, 2-5A 1 uM transfected, or both): completely resistant
- AZA sensitivity ([2]; AZA (FIG. 19)): AZA resistant
- sensitivity to AZA treatment [3]: slightly less sensitive
- sensitivity to AZA treatment [4]: almost completely resistant
- caspase3/7 activation [5]: at best only a small effect in reducing caspase3/7 activation
- caspase3/7 activation [6]: highly resistant
- caspase3/7 activation [7]: resistant
- caspase3/7 activation ([8]; 50 uM AZA): high levels of caspase3/7 activation
- PARP cleavage [9]: only a slight increase
- cleaved PARP [10]: large increase in cleaved PARP
- AZA sensitivity [11]: resistant
- AZA sensitivity [12]: resistant
- AZA sensitivity [13]: resistant
- induction of cell death by AZA [14]: relatively resistant
- induction of cell death by AZA [15]: sensitive
- induction of cell death by AZA [16]: sensitive
- cell survival [17]: 56%
- cell survival [18]: 17%
- cell survival [19]: 37%
- sensitivity to AZA treatment [20]: sensitized cells to AZA treatment
- sensitivity to AZA treatment [21]: did not
- sensitivity to AZA [22]: relatively resistant
- AZA sensitivity [23]: enhanced AZA sensitivity
- AZA sensitivity [24]: AZA resistant
- AZA sensitivity [25]: AZA resistant
- cytotoxic effect of AZA [26]: highly sensitive

Compound: CC(NC(=O)C(NC(=O)OCc1ccccc1)C(C)C)C(=O)NC(CC(=O)O)C(=O)CF (stereo not drawn) [Z-VAD] (Cbz-Val-Ala-Asp-CH2F; configuration not given here)
- effect on caspase3/7 activation by AZA ([8]; 50 uM Z-VAD in presence of 50 uM AZA): greatly suppressed caspase3/7 activation
